Results on three compounds are retold here after patent US7781444B2, “Pharmaceutical composition for treating fecal incontinence and anal itch” (S.L.A. Pharma AG, priority 1996, dated 2010).

The structures appear in SMILES notation. A value given as a limit tells only on which side of the number the result lay.

Assay [1] has as its system maximum resting anal pressure, healthy volunteers. In words: Healthy volunteer group, intraanal 10% phenylephrine, manometry. The following applies: 0.5 ml 10% (50 mg) intraanal.
In assay [2] the test system is anal resting pressure. In words: Phenylephrine ointment applied to anal margin, anal manometry. The class given is in vivo, human. The following applies: ointment in yellow soft paraffin, up to approximately 500 mg 10% ointment (50 mg of phenylephrine).
Description: Preparations of commercially available ophthalmic 10% phenylephrine hydrochloride (Minims) solution were administered intraanally with the subject in the left lateral position.
In assay [3] the test system is resting anal sphincter pressure, human volunteers. The assay can be described thus: Topical phenylephrine gel dose ranging in volunteers: resting anal sphincter pressure and anodermal blood flow. The class given is in vivo. Conditions: for rise in mean resting anal sphincter pressure (MRP): topical, twelve volunteers. The procedure: A composition of base gel had the following composition: carmellose sodium 6 g, polyethylene glycol 30 ml, methylhydroxybenzoate 150 mg, propylhydroxybenzoate 15 mg, made up to volume with distilled water (pH4).
Various amounts of phenylephrine was added at 5%, 10%, 20% and 30% w/w to form various compositions for dose ranging studies (FIG. 2).
Twelve human volunteers aged 21 to 53 (mean 35) were studied on 4 occasions. Measurements of resting anal sphincter pressure and anodermal blood flow (using a laser doppler flowmeter) were taken before and after topical application of increasing concentrations of phenylephrine gel according to example 3 (supplied by Slaco Pharma (UK) Ltd) to the anus. Readings were taken through the day after a single application in order to determine the duration of effect.

For assay [4], the system named is patients with idiopathic passive fecal incontinence. In words: Randomised placebo controlled cross over trial of 10% phenylephrine cream in idiopathic passive fecal incontinence. Format: in vivo, human. The procedure:
A prospective randomised placebo controlled cross over trial was undertaken to evaluate the use of 10% phenylephrine topical cream (according to examples 3 and 4) for treatment of idiopathic passive fecal incontinence.
30 Patients completed the study. All patients were assessed by endoanal ultrasound as well as anorectal physiology (to determine maximum resting anal pressure) and laser doppler flowmetry prior to treatment. The latter two measurements are repeated after a 3 week trial of the active agent (phenylephrine 10%) and placebo ‘Incontinence scores’ are determined before and after each treatment.

The subject of assay [5] is patients with ileo-anal pouch and fecal incontinence. The assay can be described thus: Randomised placebo controlled cross over trial of 10% phenylephrine cream in patients with ileo-anal pouch. The class given is in vivo, human. As to the method: A prospective randomised placebo controlled cross over trial was undertaken to evaluate the use of phenylephrine 10% topical cream (according to examples 2a and 3) for treatment of fecal incontinence in patients with ilco-anal pouch.
10 Patients are mainly troubled by nocturnal incontinence only, and 2 have both daytime and nocturnal incontinence.
Of the 10 completed studies, there were 7 women and 3 men, age range (34-67). Anorectal manometry was performed and laser doppler fowmetry on all patients. Incontinence score was determined. All these outcome measures were repeated after treatment with both trial creams (phenylephrine and placebo).

In assay [6] the test system is maximum resting anal pressure, patients with passive faecal incontinence. In words: Patient group with passive faecal incontinence, intraanal 10% phenylephrine, manometry.
Assay [7] has as its system maximum resting anal pressure, single healthy volunteer. The assay can be described thus: Dose response study in single volunteer, intraanal phenylephrine solution, manometry.
In assay [8] the test system is internal anal pressure, patients with incontinence or constipation. The assay can be described thus: NΩ-Nitro-L-arginine ointment in and around the anal canal, manometry before and after application. The class given is in vivo, human. Conditions: 1% ointment, twelve patients. As to the method: A 1% ointment was prepared by mixing […] of NΩ-Nitro-L-arginine (obtained from Fluka—part of the Sigma group) in 19.8 g of unguentum merk base.
The ointment was then applied in and around the anal canal of twelve patients and the interanal pressure measured by manometry (as discussed previously) before and shortly after application of the ointment.

Assay [9] concerns minor incontinence after ileoanal anastomosis. Conditions: Surgery 1990; 107: p 311-315; cited from earlier work.
[10] abbreviates: topical 10% phenylephrine cream.

Regarding `CNC[C@H](O)c1cccc(O)c1` [phenylephrine], the “maximum resting pressure after application (median)” value in assay [1] (ten healthy volunteers, pre median 110, post range 120-210, 17.5 KPa, p<0.05) came out at 180 cm H2O. The “time increased pressure was maintained (duration of the recording, median)” value in [1] (range 14-31 minutes) is at least 23 min. For the same compound, the “effect of ointment applied to the anal margin” value in [2] is listed as “no effect”. Besides, the “rise in mean resting anal sphincter pressure (MRP)” value is given as 6% in assay [3] (5% phenylephrine gel, p 0.04) and 33% in assay [3] (10% phenylephrine gel, versus pre-treatment). Further, the “duration of action of a single application (median)” value in assay [3] (10% phenylephrine gel) was 7 (range 6 to 8) hours. Moreover, the “post treatment MRP” value in assay [3] (10% phenylephrine gel, pre-treatment 85±2, P<0.0001) turned out to be 127±12 cmH2O. Further, in assay [3] (higher concentrations of phenylephrine gel (20%, 30% w/w)), the “response of MRP at concentrations higher than 10%” value is reported as “no additional response”. Besides, the “changes in anodermal blood flow” value in [3] (laser doppler flowmeter, topical phenylephrine gel) was “No notable changes”. In assay [4] (10% phenylephrine, from 62 pre, no significant change), the “mean resting pressure post phenylephrine” value is recorded as 58 cmH2O. Moreover, the “incontinence score (mean) after treatment” value in assay [4] (10% phenylephrine, improved from mean of 14) turned out to be 10. In addition, in assay [4] (laser doppler flowmetry, after 10% phenylephrine), the “change in anodermal blood flow” value was “no significant change”. Besides, the “patients with significant subjective improvement of symptoms” value in [4] (three of 30 patients, 10% cream for 3 weeks, versus baseline and placebo) is on record as 10%. Besides, the “patients with subjective improvement of symptoms (summary)” value in assay [4] (setting [10]) was 3/30. Also, the “patients with significant improvement of symptoms” value in [5] (6/10 patients, phenylephrine 10% compared to placebo) is 60%. Further, the “improvement of incontinence scores (mean)” value in [5] (after phenylephrine 10%, 3% after placebo) came out at 45%. Moreover, the “increase in mean resting anal sphincter pressure compared to baseline” value in assay [5] (in the improved patients, after phenylephrine 10%, -8% on placebo, p<0.005) is on record as 29%. For the same compound, the “differences in anodermal blood flow” value in assay [5] (laser doppler flowmetry) is listed as “No differences”. Moreover, in assay [5] (of the 7 improved patients), the “patients with objective improvement (anal sphincter pressure)” value was determined as 6 patients. For the same compound, the “patients with no improvement” value in assay [5] (phenylephrine 10% cream) is recorded as 3/10. In [5] (phenylephrine 10% cream, 14% after placebo, p<0.01), the “mean subjective improvement in symptoms reported by patients” value was found to be 83%. Also, the “improvement of incontinence score, one patient” value in assay [5] (single patient without measurable pressure increase) is reported as 47%. For the same compound, the “subjective improvement, one patient” value in [5] (single patient, after phenylephrine compared to placebo) is 75%. The “anal sphincter pressure, one patient” value in [5] (single patient, phenylephrine 10% cream) is reported as “no measurable increase”. The “patients with improvement of symptoms of incontinence (summary)” value in assay [5] (setting [10]) is on record as 7/10. For the same compound, in assay [6] (0.5 ml 10% (50 mg) intraanal, ten patients, pre median 25, post range 20-80, 5.5 KPa, p=0.39), the “median maximum resting pressure after instillation” value was found to be 55 cm H2O. Moreover, the “patients demonstrating a rise in anal pressure” value in assay [6] (of ten patients, two showed a fall, one no change) is given as “Seven”. Besides, the “increase in maximum resting pressure” value in assay [7] (0.5 ml 0.1% (0.5 mg) intraanal), in [7] (0.5 ml 0.5% (2.5 mg) intraanal), in [7] (0.5 ml 1% (5 mg) intraanal) and in assay [7] (0.5 ml 5% (25 mg) intraanal) was “no significant increase” throughout. Besides, the “resting pressure after instillation” value in [7] (0.5 ml 10% (50 mg) into the anal canal, from 120 cm H2O before (12-21 KPa)) is listed as 210 cm H2O. The “time over which increase in resting anal pressure was evident (continuous recording)” value in [7] (0.5 ml 10% (50 mg) intraanal) is at least 25 min. The “resting anal pressure 13 hours later” value in assay [7] (0.5 ml 10% (50 mg) intraanal, manometry repeated at 13 hours) is “returned to pre-treatment level”.

For the compound `NC(=NCCC[C@H](N)C(=O)O)N[N+](=O)[O-]` [NΩ-Nitro-L-arginine], the “effect on resting internal anal sphincter pressure (in words)” value in [8] is on record as “increase the resting internal an1 sphincter pressure”.

Take `CCCC(CCC)C(=O)[O-].[Na+]` [sodium valproate]: the “treatment of minor incontinence after ileoanal anastomosis” value in assay [9] is given as “useful”.
